Assay results published in PubChem BioAssay (NCI).
Where “and” joins values, the source holds several entries; their conditions need not be identical. Identical values can stand only once.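 Cells were grown in 96-well plates and exposed to each compound for 48 hours at five concentrations; endpoints were interpolated linearly between bracketing concentrations, or set to the highest concentration if not reached. GI50 = concentration required for 50% inhibition of growth. At the TGI there is no net growth.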

Assays:
Assay in all cases: NCI tumour cell line growth inhibition, 48 h
RXF 393 renal = test system: RXF 393 renal
SN12C renal = test system: SN12C renal
MDA-MB-231 breast = test system: MDA-MB-231 breast
SK-MEL-5 melanoma = test system: SK-MEL-5 melanoma
HT29 colon = test system: HT29 colon
K-562 leukemia = test system: K-562 leukemia
HL-60(TB) leukemia = test system: HL-60(TB) leukemia
A498 renal = test system: A498 renal
CAKI-1 renal = test system: CAKI-1 renal
RPMI-8226 leukemia = test system: RPMI-8226 leukemia

SMILES | TGI (RXF 393 renal) | TGI (SN12C renal) | TGI (MDA-MB-231 breast) | TGI (SK-MEL-5 melanoma) | TGI (HT29 colon) | TGI (K-562 leukemia) | TGI (HL-60(TB) leukemia) | TGI (A498 renal) | TGI (CAKI-1 renal) | TGI (RPMI-8226 leukemia) | GI50 (RXF 393 renal) | GI50 (SN12C renal) | GI50 (MDA-MB-231 breast) | GI50 (SK-MEL-5 melanoma) | GI50 (HT29 colon) | GI50 (K-562 leukemia) | GI50 (HL-60(TB) leukemia) | GI50 (A498 renal) | GI50 (CAKI-1 renal) | GI50 (RPMI-8226 leukemia)
Nc1nc(N)nc(CC(=O)O)n1 | > 100 µM | > 100 µM | > 100 µM | > 100 µM | > 100 µM | > 100 µM | > 100 µM | > 100 µM | > 100 µM | > 100 µM | – | – | – | – | – | – | – | – | – | –
Cc1cc(=O)oc2cc(OC(=O)N(CCCl)CCCl)ccc12 | > 100 µM | > 100 µM | > 100 µM | > 100 µM | > 100 µM | > 100 µM | > 100 µM | > 100 µM | > 100 µM | > 100 µM | – | – | – | – | – | – | – | – | – | –
CC(=O)c1cc(-c2ccccc2N)n(-c2ccc3c(c2)OCO3)c1C | 0.681 µM | > 100 µM | > 77 µM | 1.59 µM | > 35.6 µM | > 100 µM | 0.592 µM | 0.808 µM | 83.7 µM | 19.3 µM | 0.208 µM | 0.135 µM | 0.134 µM | 0.196 µM | 0.292 µM | 0.247 µM | 0.217 µM | 0.195 µM | 0.406 µM | 0.351 µM
CCOC(=O)Cc1csc(N=Nc2c(O)[nH]c3ccccc23)n1 | > 100 µM | > 100 µM | > 100 µM | 69.9 µM | > 100 µM | > 100 µM | 50.7 µM | > 100 µM | > 100 µM | > 100 µM | – | – | – | – | – | – | – | – | – | –
CN(C)CCCc1c2ccccc2nc2ccc(Cl)cc12 | 28.8 µM | 26.1 µM | 31.9 µM | 28.2 µM | 28.5 µM | 67.7 µM | 40.3 µM | 34.2 µM | 31.4 µM | 96.2 µM | – | – | – | – | – | – | – | – | – | –
NNS(=O)(=O)c1cc(C(=O)O)cc(C(=O)O)c1 | > 100 µM | > 100 µM | > 100 µM | > 100 µM | > 100 µM | > 100 µM | > 100 µM | > 100 µM | > 100 µM | > 100 µM | – | – | – | – | – | – | – | – | – | –
Oc1c(CN2CCCC2)cc(CSCc2ccccc2)c2cccnc12 | 3.74 µM | 13.5 µM | 12.2 µM | 1.6 µM | 14 µM | 10.6 µM | 2.77 µM | 8.08 µM | 1.47 µM | 6.81 µM | 0.772 µM | 1.69 µM | 0.987 µM | 0.35 µM | 3.88 µM | 0.551 µM | 0.554 µM | 2.26 µM | 0.0774 µM | 1.42 µM
COc1cc2c(c(OC)c1OC)-c1ccc(O)c(=O)cc1[C@@H](NC(C)=O)CC2 | > 100 µM | 88.2 µM and 35 µM | > 100 µM and 41.7 µM | 32.2 µM and 20.5 µM | > 100 µM and 89.7 µM | > 100 µM | 15.6 µM and 32.7 µM | > 100 µM and 44.1 µM | > 100 µM and 37.5 µM | > 100 µM and 36.9 µM | 14.6 µM | 7.93 µM | 4.7 µM | – | 6.91 µM | 6.91 µM | 3.31 µM | 15 µM | 4.91 µM | 8.15 µM
Clc1ccc2ns[s+]c2c1 | > 100 µM | > 100 µM | > 100 µM | > 96.2 µM | > 100 µM | > 100 µM | > 77.9 µM | > 100 µM | > 100 µM | > 100 µM | – | – | – | – | – | – | – | – | – | –
CC(C(=O)O)c1ccc(-c2ccccc2)c(F)c1 (stereo unspecified) | > 100 µM | > 100 µM | > 100 µM | > 100 µM | > 100 µM | > 100 µM | > 100 µM | > 100 µM | > 100 µM | > 100 µM | – | – | – | – | – | – | – | – | – | –
CCCCN(CCCC)CCc1c(C)cc(C)c(CCN(CCCC)CCCC)c1O | 7.23 µM | 9.43 µM | 8.56 µM | 4.1 µM | 13 µM | > 100 µM | 8.17 µM | 7.31 µM | 7.35 µM | 7.13 µM | 2.4 µM | 2.85 µM | 2.43 µM | 1.97 µM | 2.52 µM | 2.25 µM | 2.51 µM | 2.3 µM | 2.17 µM | 2.24 µM
CCC[CH2][Sn]1([CH2]CCC)[O]C(=O)c2ccc(N)cc2[O]1 | 0.427 µM | 2.37 µM | 1.42 µM | 2.15 µM | 2.73 µM | 8.5 µM | 1.67 µM | 0.763 µM | 1.27 µM | 1.79 µM | 0.112 µM | 0.88 µM | 0.185 µM | 0.692 µM | 1.33 µM | 0.111 µM | 0.105 µM | 0.278 µM | 0.119 µM | 0.143 µM
[N-]=[N+]=CC(=O)COC(=O)c1ccccc1 | > 100 µM | > 100 µM | > 100 µM | > 100 µM | > 100 µM | > 100 µM | > 100 µM | > 100 µM | > 100 µM | > 100 µM | – | – | – | – | – | – | – | – | – | –
CCOC(=O)Nc1nc2cc(OCC)ccc2s1 | > 100 µM | > 100 µM | > 100 µM | > 100 µM | > 100 µM | > 100 µM | > 100 µM | > 100 µM | > 100 µM | > 100 µM | > 100 µM | > 84.4 µM | > 100 µM | 8.44 µM | 4.26 µM | 3 µM | 4.85 µM | 6.46 µM | > 75.4 µM | > 65.8 µM
O=C(Nc1ccc(Br)cc1)Nc1nn(C(=O)Nc2ccc(Br)cc2)c2ccccc12 | > 45.9 µM | > 100 µM | > 100 µM | > 100 µM | > 100 µM | > 35.6 µM | > 32.2 µM | > 81 µM | > 84 µM | > 100 µM | – | 43.9 µM | 27.2 µM | > 100 µM | > 100 µM | 7.64 µM | 12 µM | 31.4 µM | 44.2 µM | > 51.7 µM
COc1cc2c3c(c1OC)C1(C=CC(=O)C=C1)CC3NCC2 (stereo unspecified) | > 100 µM | > 100 µM | > 100 µM | > 100 µM | > 100 µM | > 100 µM | > 100 µM | > 100 µM | > 100 µM | > 100 µM | – | – | – | – | – | – | – | – | – | –
CC(=O)c1cccc(-c2cccc(-c3ccn(CCN4CCOCC4)n3)c2)c1 | > 20 µM | > 20 µM | > 20 µM | > 20 µM | > 20 µM | > 20 µM | > 20 µM | > 20 µM | > 20 µM | > 20 µM | > 20 µM | > 20 µM | > 20 µM | 11.6 µM | > 20 µM | > 20 µM | > 20 µM | 14.5 µM | > 20 µM | > 20 µM
Oc1c(Cl)cc(Cl)cc1Sc1cc(Cl)cc(Cl)c1O | 8.76 µM and 7.65 µM | 13 µM and 11.4 µM | 6.07 µM and 4.34 µM | 4.04 µM and 4.03 µM | 10.9 µM and 6.25 µM | 12 µM and 23.5 µM | 6.5 µM and 7.5 µM | 5.52 µM and 5.19 µM | 9.13 µM and 5.93 µM | 8.93 µM and 16.8 µM | 2.84 µM and 2.52 µM | 3.13 µM and 3.14 µM | 2.59 µM and 1.86 µM | 1.84 µM and 1.74 µM | 3.71 µM and 2.22 µM | 3.17 µM and 2.91 µM | 2.88 µM and 2.72 µM | 1.81 µM and 1.87 µM | 2.65 µM and 2.04 µM | 3.13 µM and 2.49 µM
Nc1cc2[nH]cnc2c(=O)[nH]1 | > 300 µM | > 300 µM | > 300 µM | > 290 µM | > 300 µM | > 300 µM | 178 µM | 298 µM | 135 µM | > 300 µM | – | – | – | – | – | – | – | – | – | –
CC[C@]1(O)C[C@@H]2CN(CCc3c([nH]c4ccccc34)[C@@](C(=O)OC)(c3cc4c(cc3OC)N(C)[C@H]3[C@@](O)(C(N)=O)[C@H](O)[C@]5(CC)[C@@H]6C[C@@H]6CN6CC[C@]43[C@@H]65)C2)C1 | > 33.3 µM | > 33.3 µM | > 16.2 µM | 0.0546 µM | – | > 33.3 µM | 0.013 µM | 0.243 µM | > 33.3 µM | > 28.7 µM | 0.0153 µM | 0.0373 µM | 0.00548 µM | < 0.00333 µM | < 0.00333 µM | < 0.00333 µM | < 0.00333 µM | 0.00466 µM | 1.12 µM | < 0.00333 µM
N=c1ccc2nc3c(cc(N)c4ccccc43)oc-2c1 | 2.32 µM | 0.801 µM | 1.21 µM | 0.277 µM | 1.7 µM | 1.18 µM | 0.733 µM | 0.78 µM | 2.32 µM | 2.94 µM | 0.71 µM | 0.253 µM | 0.179 µM | 0.144 µM | 0.535 µM | 0.298 µM | 0.147 µM | – | 0.444 µM | 0.427 µM
O=C(N/N=C/c1ccc(Cl)cc1)c1[nH]c2ccc(Cl)cc2c1-c1ccccc1 | 1.51 µM | > 70.4 µM | 0.633 µM | 0.469 µM | > 36 µM | 12.7 µM | 0.393 µM | > 100 µM | 0.645 µM | 0.0556 µM | 0.123 µM | 0.206 µM | 0.201 µM | 0.214 µM | 0.122 µM | 0.206 µM | 0.107 µM | 15.4 µM | 0.185 µM | 0.0193 µM
COc1cc2ncnc3c2cc1OCCCCCN(C)Cc1ccc(Br)cc1N3 | > 100 µM | > 100 µM | 50.9 µM and > 10 µM | > 100 µM | > 100 µM | > 100 µM | > 100 µM | 17.3 µM and > 10 µM | > 100 µM | > 100 µM | 4.03 µM and 1.84 µM | 5.45 µM and 1.32 µM | 10.6 µM and 7.51 µM | 24 µM | 6.34 µM and 3.35 µM | 3.98 µM and 2.93 µM | 2.94 µM and 3.68 µM | 1.35 µM and 0.539 µM | 0.288 µM and 0.375 µM | 7.39 µM and 3.92 µM
